# Test results: patent publication US20230044787A1, “TRICYCLE DIHYDROIMIDAZOPYRIMIDONE DERIVATIVE, PREPARATION METHOD THEREOF, PHARMACEUTICAL COMPOSITION AND USE THEREOF” (priority 2019, published 2023)
# Biological target: T1, Lp-PLA2 (Homo sapiens, UniProt Q13093)
# T1 construct: aliquoted and thawed 40 μL of pooled human plasma was previously added; from tissue; host or cells: pooled human plasma
# T1 sequence (Q13093 22-441): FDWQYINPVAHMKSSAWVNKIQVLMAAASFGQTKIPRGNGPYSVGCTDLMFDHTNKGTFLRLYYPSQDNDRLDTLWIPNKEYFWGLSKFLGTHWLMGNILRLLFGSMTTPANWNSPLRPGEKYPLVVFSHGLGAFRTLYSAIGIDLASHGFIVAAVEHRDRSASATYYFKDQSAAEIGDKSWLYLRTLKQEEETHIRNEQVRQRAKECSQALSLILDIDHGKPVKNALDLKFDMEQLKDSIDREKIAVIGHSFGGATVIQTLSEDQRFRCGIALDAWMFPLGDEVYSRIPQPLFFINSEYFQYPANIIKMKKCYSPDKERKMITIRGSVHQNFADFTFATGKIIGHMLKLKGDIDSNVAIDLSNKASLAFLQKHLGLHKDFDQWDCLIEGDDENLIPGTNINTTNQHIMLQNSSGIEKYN
# Assay: Lipoprotein-associated phospholipase A2 (Lp-PLA2) human plasma assay (Thio-PAF assay)
# Assay type: biochemical
# Conditions: Lp-PLA2 human plasma assay (Thio-PAF), pooled human plasma, 30-min pre-incubation at room temperature
# Method: Lipoprotein-Associated Phospholipase A2 (Lp-PLA2) Human Plasma Assay
# The amount of sulfhydryl groups is continuously determined by the reaction with CPM (7-diethylamino-3-(4′-maleimidophenyl)-4-methylcoumarin), and the CPM is a maleimide of which fluorescence increases after Michael addition of sulfhydryl group. This assay can detect Lp-PLA2 activity in human plasma, as determined by specific inhibition of Lp-PLA2 inhibitors.
# Thio-PAF assay was performed as quenched 75 μL assay. Compound source plate was prepared for each compound by preparing 1:3 (by volume) serial dilutions in pure DMSO in a 96-well microplate. The compound on the source plate was diluted 20-fold by transferring 3 μL of the compound from the compound source plate into a 96-well microplate pre-added with 57 μL of assay buffer by Rainin multichannel pipette. The assay buffer described above consisted of 50 mM HEPES, pH 7.4, 150 mM NaCl, 1 mM CHAPS. 1 μL of the 20-fold diluted compound was transferred by Rainin multichannel pipette into a 96-well Greiner 655076 (black) microplate to which aliquoted and thawed 40 μL of pooled human plasma was previously added. The plate was shaken for 20 seconds on a microplate shaker to mix well. After a 30-min pre-incubation at room temperature, 10 μL of substrate solution was added to the 96-well Greiner 655076 (black) microplate by Rainin multichannel pipette, in which the substrate solution contained 2.5 mM 2-thio-PAF [from ethanol stock], 32 μM CPM [from DMSO stock], and 3.2 mM NEM (N-ethylmaleimide) [freshly prepared in DMSO per experiment] in assay buffer consisting of 50 mM HEPES, pH 7.4; 150 mM NaCl; 1 mM CHAPS. After 2 min, the reaction was quenched with […] of 5% trifluoroacetic acid (TFA) in water. The plate was centrifuged at 2000 rpm for 1 minute. The plate was read at ex:380/em:485 using a Biotek Synergy H1 (H1MF) microplate reader. IC50 data, curves and QC analysis were performed using GraphPad Prism 6.0 and Excel.
row,IC50,Structure (SMILES)
1,7.6 nM,"CC12CCCCN1c1cc(OCc3ccc(Oc4ccc(Cl)c(F)c4)c(C#N)c3)nc(=O)n1C2 (stereo not shown) [Example 72, 2-(4-chloro-3-fluorophenoxy)-5-(((-9a-methyl-1-oxo-6,7,8,9,9a,10-hexahydro-1H-pyrido[1′,2′:3,4]imidazo [1,2-c]pyrimidin-3-yl)oxy)methyl)benzonitrile]"
2,2 nM,"CC12COCCN1c1cc(OCc3cc(F)c(Oc4ccc(Cl)c(C(F)(F)F)c4)c(F)c3)nc(=O)n1C2 (stereo not shown) [Example 82, 7-((4-(4-chloro-3-(trifluoromethyl)phenoxy)-3,5-difluorobenzyl)oxy)-11a-methyl-3,4,11,11a-tetrahydro-1H,9H-pyrimido[6′,1′:2,3]imidazo [5,1-c][1,4]oxazin-9-one]"
3,4.8 nM,"O=c1nc(OCc2ccc(Oc3ccc(C(F)(F)F)cc3)c(F)c2)cc2n1CC13CCC(CC1)N23 [Example 130, 3-((3-fluoro-4-(4-(trifluoromethyl)phenoxy)benzyl)oxy)-7,8-dihydro-1H,6H,9H-6,8a-ethanopyrrolo[1′,2′:3,4] imidazo[1,2-c]pyrimidin-1-one]"
4,5.3 nM,"N#Cc1cc(COc2cc3n(c(=O)n2)C[C@@]24CO[C@@H](CN32)C4)ccc1Oc1ccnc(C(F)(F)F)c1 [Example 110, 5-((((3R,11aS)-9-oxo-3,4-dihydro-1H,9H,11H-3,11a-methanopyrimido[6′,1′:2,3]imidazo[5,1-c][1,4]oxazin-7-yl)oxy)methyl)-2-((2-(trifluoromethyl)pyridin-4-yl)oxy)benzonitrile]"
5,87.2 nM,COc1c(N(C)Cc2ccc(F)c(F)c2)nc(=O)n2c1N1C[C@@H]3C[C@]1(CO3)C2 [Example 180]
6,342 nM,"O=c1nc(OCc2ccccc2F)cc2n1CC13CC(CN21)C3 [Example 44, 3-((2-fluorobenzyl)oxy)-7,8-dihydro-1H,6H,9H-7,8a-methanopyrrolo[1′,2′:3,4] imidazo[1,2-c]pyrimidin-1-one]"
7,22.6 nM,"CCC12CCCN1c1cc(OCc3cc(F)c(Oc4cnc(C(F)(F)F)nc4)c(F)c3)nc(=O)n1C2 (stereo not shown) [Example 64, 3-((3,5-difluoro-4-((2-(trifluoromethyl)pyrimidin-5-yl)oxy)benzyl)oxy)-8a-ethyl-7,8,8a,9-tetrahydro-1H,6H-pyrrolo[1′,2′:3,4]imidazo [1,2-c]pyrimidin-1-one]"
8,22.3 nM,"CC12CCCCN1c1cc(OCc3ccc(F)c(F)c3)nc(=O)n1C2 (stereo not shown) [Example 74, 3-((3,4-difluorobenzyl)oxy)-9a-methyl-6,7,8,9,9a,10-hexahydro-1H-pyrido [1′,2′:3,4]imidazo[1,2-c]pyrimidin-1-one]"
9,7.4 nM,N#Cc1cc(Oc2ccc(COc3cc4n(c(=O)n3)CC35CC(CN43)C5)cc2F)cc(C(F)(F)F)c1 [Example 95]
10,3.9 nM,"COc1c(OCc2ccc(Oc3ccnc(C(F)F)c3)c(F)c2)nc(=O)n2c1N1CC3CC1(C3)C2 [Example 140, 3-((4-((2-(difluoromethyl)pyridin-4-yl)oxy)-3-fluorobenzyl)oxy)-4-methoxy-7,8-dihydro-1H,6H,9H-7,8a-methanopyrrolo[1′,2′:3,4] imidazo[1,2-c]pyrimidin-1-one]"
11,5.5 nM,"O=c1nc(OCc2cc(F)c(Oc3ccnc(C(F)(F)F)c3)c(F)c2)cc2n1C[C@@]13CO[C@@H](CN21)C3 [Example 26, (3R,11aS)-7-((3,5-difluoro-4-((2-(trifluoromethyl)pyridin-4-yl)oxy)benzyl)oxy)-3,4-dihydro-1H,9H,11H-3,11a-methanopyrimido[6′,1′:2,3] imidazo[5,1-c][1,4]oxazin-9-one]"
12,168 nM,"O=c1nc(OCc2ccc(Oc3ccc(F)c(C(F)(F)F)c3)nc2)cc2n1CC13CCC(CC1)N23 [Example 49, 3-((6-(4-fluoro-3-(trifluoromethyl)phenoxy)pyridin-3-yl)methoxy)-7,8-dihydro-1H,6H,9H-6,8a-ethanopyrrolo[1′,2′:3,4] imidazo[1,2-c]pyrimidin-1-one]"
13,14 nM,"O=c1nc(OCc2ccc(Oc3ccnc(C(F)(F)F)c3)cc2)cc2n1CC13CC(CN21)C3 [Example 109, 3-((4-((2-(trifluoromethyl)pyridin-4-yl)oxy)benzyl)oxy)-7,8-dihydro-1H,6H,9H-7,8a-methanopyrrolo[1′,2′:3,4] imidazo[1,2-c]pyrimidin-1-one]"
14,5.9 nM,"O=c1nc(OCCc2ccc(Oc3ccnc(C(F)(F)F)c3)c(F)c2)cc2n1CC13CC(CN21)C3 [Example 190, 3-(3-fluoro-4-((2-(trifluoromethyl)pyridin-4-yl)oxy)phenethoxy)-7,8-dihydro-1H,6H,9H-7,8a-methanopyrrolo[1′,2′:3,4]imidazo[1,2-c] pyrimidin-1-one]"
15,7.7 nM,"CC12CCCN1c1cc(OCc3cc(F)c(Oc4cnc(C(F)(F)F)nc4)c(F)c3)nc(=O)n1C2 (stereo not shown) [Example 56, 3-((3,5-difluoro-4-((2-(trifluoromethyl)pyrimidin-5-yl)oxy)benzyl)oxy)-8a-methyl-7,8,8a,9-tetrahydro-1H,6H-pyrrolo[1′,2′:3,4]imidazo [1,2-c]pyrimidin-1-one]"
16,5.6 nM,"Cc1c(OCc2cc(F)c(Oc3ccnc(C(F)(F)F)c3)c(F)c2)nc(=O)n2c1N1C[C@@H]3C[C@]1(CO3)C2 [Example 92, (3S,11aR)-7-((3,5-difluoro-4-((2-(trifluoromethyl)pyridin-4-yl)oxy)benzyl)oxy)-6-methyl-3,4-dihydro-1H,9H,11H-3,11a-methanopyrimido[6′,1′:2,3] imidazo[5,1-c][1,4]oxazin-9-one]"
17,6.2 nM,CC12COCCN1c1cc(OCc3ccc(Oc4ccc(Cl)c(C(F)(F)F)c4)c(C#N)c3)nc(=O)n1C2 (stereo not shown) [Example 84]
18,3.7 nM,[2H]C1([2H])n2c(cc(OCc3cc(F)c(Oc4ccnc(C(F)(F)F)c4)c(F)c3)nc2=O)N2C[C@@H]3C[C@@]21CO3 [Example 93]
19,10.8 nM,"O=c1nc(OCc2ccc(Oc3ccnc(C(F)(F)F)c3)cc2F)cc2n1CC13CC(CN21)C3 [Example 105, 3-((2-fluoro-4-((2-(trifluoromethyl)pyridin-4-yl)oxy)benzyl)oxy)-7,8-dihydro-1H,6H,9H-7,8a-methanopyrrolo[1′,2′:3,4] imidazo[1,2-c]pyrimidin-1-one]"
20,5.7 nM,"O=c1nc(OCc2ccc(Oc3ccnc(C(F)(F)F)c3)c(F)c2)cc2n1CC13CC(CN21)C3 [Example 113, 3-((3-fluoro-4-((2-(trifluoromethyl)pyridin-4-yl)oxy)benzyl)oxy)-7,8-dihydro-1H,6H,9H-7,8a-methanopyrrolo[1′,2′:3,4] imidazo[1,2-c]pyrimidin-1-one]"
21,7.6 nM,"N#Cc1c(OCc2cc(F)c(Oc3ccnc(C(F)(F)F)c3)c(F)c2)nc(=O)n2c1N1C[C@@H]3C[C@]1(CO3)C2 [Example 102, (3S,11aR)-7-((3,5-difluoro-4-((2-(trifluoromethyl)pyridin-4-yl)oxy)benzyl)oxy)-6-cyano-3,4-dihydro-1H,9H,11H-3,11a-methanopyrimido[6′,1′:2,3] imidazo[5,1-c][1,4]oxazin-9-one]"
22,3 nM,"O=c1nc(OCc2ccc(Oc3ccc(Cl)c(C(F)(F)F)c3)c(F)c2)cc2n1CC13CC(CN21)C3 [Example 125, 3-((3-fluoro-4-(4-chloro-3-(trifluoromethyl)phenoxy)benzyl)oxy)-7,8-dihydro-1H,6H,9H-7,8a-methanopyrrolo[1′,2′:3,4] imidazo[1,2-c]pyrimidin-1-one]"
23,11.4 nM,"O=c1nc(OCCc2ccc(Oc3ccnc(C(F)(F)F)c3)cc2)cc2n1CC13CC(CN21)C3 [Example 111, 3-(4-((2-(trifluoromethyl)pyridin-4-yl)oxy)phenethoxy)-7,8-dihydro-1H,6H,9H-7,8a-methanopyrrolo[1′,2′:3,4] imidazo[1,2-c]pyrimidin-1-one]"
24,325 nM,"CC12CCCCN1c1cc(OCc3ccc(Oc4ccc(F)c(C(F)(F)F)c4)nc3)nc(=O)n1C2 (stereo not shown) [Example 69, 3-((6-(4-fluoro-3-(trifluoromethyl)phenoxy)pyridin-3-yl)methoxy)-9a-methyl-6,7,8,9,9a,10-hexahydro-1H-pyrido[1,2′:3,4]imidazo [1,2-c]pyrimidin-1-one]"

row,Structure (SMILES),IC50
1,"N#Cc1cc(COc2cc3n(c(=O)n2)CC24CCC(CC2)N34)ccc1F [Example 163, 2-fluoro-5-(((1-oxo-7,8-dihydro-1H,6H,9H-6,8a-ethanopyrrolo[1′,2′:3,4]imidazo[1,2-c]pyrimidin-3-yl)oxy)methyl)benzonitrile]",2.4 nM
